{"source": "patent US12054494B2", "about": "“Compound with anticancer activity” (KYOWA KIRIN CO., LTD., priority 2018, dated 2024)", "test_system": "SU-DHL-4 cells", "assay": "Inhibitory effect on cell viability (Cell Counting Kit-8)", "assay_type": "cell-based", "settings": "Homo sapiens, 72 hours culture with test compound, concentration showing 90% inhibition rate of cell viability", "how_it_was_run": "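IC90 corresponds to 90% loss of viability, measured as CCK-8 absorbance at 450 nm (2-3 h colour development). Compounds in 9 dilutions (0.1% DMSO) were applied for 72 h at 37° C to SU-DHL-4 lymphoma cells seeded at 2000/well in RPMI1640/10% FBS after 18-25 h preculture.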", "data": [{"smiles": "CCC(=O)N1c2ccccc2[C@H](Nc2ccc(NC(=O)c3coc(Nc4ccc(N[C@@H]5C[C@H](C)N(C(=O)CC)c6ccccc65)cc4)n3)cc2)C[C@@H]1C", "note": "[Compound 5a, N-(4-(((2S,4R)-2-Methyl-1-propionyl-1,2,3,4-tetrahydroquinolin-4-yl)amino)phenyl)-2-((4-(((2S,4R)-2-methyl-1-propionyl-1,2,3,4-tetrahydroquinolin-4-yl)amino)phenyl)amino)oxazole-4-carboxamide]", "values": [{"measurement": "IC90", "value": 2.15, "unit": "nM"}]}, {"smiles": "CCC(=O)N1c2ccccc2[C@H](Nc2ccc(NC(=O)CCSc3ccc(N[C@@H]4C[C@H](C)N(C(=O)CC)c5ccccc54)cc3)cc2)C[C@@H]1C", "note": "(relative stereo) [Compound 4e, N-(4-{[(2S*,4R*)-2-Methyl-1-propionyl-1,2,3,4-tetrahydroquinolin-4-yl]amino}phenyl)-3-[(4-{[(2S,4R)-2-methyl-1-propionyl-1,2,3,4-tetrahydroquinolin-4-yl]amino}phenyl)thio]propanamide]", "values": [{"measurement": "IC90", "value": 0.34, "unit": "nM"}]}, {"smiles": "CCC(=O)N1c2ccccc2[C@H](Nc2ccc(NC(=O)[C@@H](C)NC(=O)c3ccc(N[C@@H]4C[C@H](C)N(C(=O)CC)c5ccccc54)cc3)cc2)C[C@@H]1C", "note": "(relative stereo) [Compound 2c, 4-{[(2S,4R)-2-Methyl-1-propionyl-1,2,3,4-tetrahydroquinolin-4-yl]amino}-N-{(R)-1-[(4-{[(2S*,4R*)-2-methyl-1-propionyl-1,2,3,4-tetrahydroquinolin-4-yl]amino}phenyl)amino]-1-oxopropan-2-yl}benzamide]", "values": [{"measurement": "IC90", "value": 29.1, "unit": "nM"}]}, {"smiles": "CCC(=O)N1c2ccccc2[C@H](Nc2ccc(-c3nnc(CNC(=O)C4CCN(Cc5cc(O)cc(-c6c(C)noc6C)c5)CC4)o3)cc2)C[C@@H]1C", "note": "[Compound 12a, 1-(3-(3,5-Dimethylisoxazol-4-yl)-5-hydroxybenzyl)-N-((5-(4-(((2S,4R)-2-methyl-1-propionyl-1,2,3,4-tetrahydroquinolin-4-yl)amino)phenyl)-1,3,4-oxadiazol-2-yl)methyl)piperidine-4-carboxamide]", "values": [{"measurement": "IC90", "value": 1.01, "unit": "nM"}]}, {"smiles": "CCC(=O)N1c2ccccc2[C@H](Nc2ccc(-c3cnn(CCNC(=O)c4ccc(C5=NCc6nnc(C)n6-c6sc(C)c(C)c65)cc4)c3)cc2)C[C@@H]1C", "note": "[Compound 14b, N-(2-(4-(4-(((2S,4R)-2-Methyl-1-propionyl-1,2,3,4-tetrahydroquinolin-4-yl)amino)phenyl)-1H-pyrazol-1-yl)ethyl)-4-(2,3,9-trimethyl-6H-thieno[3,2-f][1,2,4]triazolo[4,3-a][1,4]diazepin-4-yl)benzamide]", "values": [{"measurement": "IC90", "value": 0.12, "unit": "nM"}]}, {"smiles": "CCC(=O)N1c2ccccc2[C@H](NCCCC(=O)NCCn2cc(-c3ccc(N[C@@H]4C[C@H](C)N(C(=O)CC)c5ccccc54)cc3)cn2)C[C@@H]1C", "note": "(relative stereo) [Compound 12i, 4-(((2S*,4R*)-2-Methyl-1-propionyl-1,2,3,4-tetrahydroquinolin-4-yl)amino)-N-(2-(4-(4-(((2S,4R)-2-methyl-1-propionyl-1,2,3,4-tetrahydroquinolin-4-yl)amino)phenyl)-1H-pyrazol-1-yl)ethyl)butanamide]", "values": [{"measurement": "IC90", "value": 3.68, "unit": "nM"}]}, {"smiles": "CCC(=O)N1c2ccccc2[C@H](Nc2ccc(NC(=O)C3CN(C(=O)N4CCC(N[C@@H]5C[C@H](C)N(C(=O)CC)c6ccccc65)CC4)C3)cc2)C[C@@H]1C", "note": "[Compound 10a, N-(4-(((2S,4R)-2-Methyl-1-propionyl-1,2,3,4-tetrahydroquinolin-4-yl)amino)phenyl)-1-(4-(((2S,4R)-2-methyl-1-propionyl-1,2,3,4-tetrahydroquinolin-4-yl)amino)piperidine-1-carbonyl)azetidine-3-carboxamide]", "values": [{"measurement": "IC90", "value": 2.4, "unit": "nM"}]}, {"smiles": "CCC(=O)N1c2ccccc2[C@H](Nc2ccc(C(=O)N3CC(NC(=O)c4ccc(C5=N[C@@H](CC(=O)OC(C)(C)C)c6nnc(C)n6-c6sc(C)c(C)c65)cc4)C3)cc2)C[C@@H]1C", "note": "[Compound 1n, tert-Butyl 2-[(S)-2,3,9-trimethyl-4-(4-{[1-(4-{[(2S,4R)-2-methyl-1-propionyl-1,2,3,4-tetrahydroquinolin-4-yl]amino}benzoyl)azetidin-3-yl]carbamoyl}phenyl)-6H-thieno[3,2-f][1,2,4]triazolo[4,3-a][1,4]diazepin-6-yl]acetate]", "values": [{"measurement": "IC90", "value": 0.49, "unit": "nM"}]}]}
